Experimental findings from patent US6228382A, “Microbiocidal mixtures” (ETC C.V., priority 1996, dated 2001) are described below.

Data set [1] in a line: Determination of the octanol/water partition coefficients (logPow) by HPLC, OECD guideline 117. Format: physicochemical. The note with it: rp 18 hplc; HPLC method, RP 18 column, OECD 117; read-out: logPow (octanol/water partition coefficient).
The nature of data set [2]: Determination of the relative leaching rate from house paint (watering with tap water, HPLC of methanol extracts). In kind it is physicochemical. The source says:
First, 128 parts by weight (PW) of water were initially charged. 11 PW of a 10% strength by weight solution of Calgon N (sodium triphosphate) were subsequently stirred into the water. Thereafter, 2 PW of Tylose MHB 6000 (from Hoechst AG), 3 PW of Additol XW 330 (from Hoechst AG), 4 PW of Agitan 260 (from Munzing-Chemie, Heilbronn), 226 PW of titanium dioxide (for example from Kronos 2065), 375 PW of MOWILITH® DM 771 (about 50%) (from. HOECHST), 84 PW of Omyacarb 5 (from Omya), 84 PW of Micro Mica W1, 38 PW of Micro Talc AT 1 and 20 PW of China Clay D were added and homogenized. 11 PW of white spirit, 8 PW of butyl diglycol acetate and 4 PW of MERGAL® K 9 N (Riedel de Haen) were stirred into the resulting mixture. The pH of the resulting house paint was 8.8.
The preservatives listed in Table 2 were homogeneously dispersed into the resulting house paint.
The resulting paint sample was in each case drawn out to a film of approximately 150 g/m^2 on paper, using a knife. The paint sample prepared in this manner was subsequently dried at a temperature of 30° C. for 72 hours.
Test samples having a diameter of 5.5 cm were punched out from the paint sample. To simulate leaching by rainwater, these paint-coated test samples were watered with tap water (46.7 1/day/m^2 of paint). Test samples were taken in each case after 24 hours and air-dried for 72 hours.
To determine the microbicide concentration, in each case one specimen was extracted in methanol. The methanol extracts were analysed by HPLC. […]
column: RP-phenyl (Hypersil 5 μ) mobile phase: gradient water/acetonitrile
UV-Detector: 220 nm and 200 nm
Since in each analysis, the substances listed in Table 3 were measured as the area under the HPLC signal, it is possible to relate the leaching rates directly to the known active compounds OITZ and Mctt.

Molecules are shown by their SMILES.

Take `CCCCCCCCCCn1sccc1=O` [DITZ, 2-n-decyl-isothiazolin-3-one]: the chromatographic logP in data set [1] came out at 4.14.

As for `CSc1nc(NC2CC2)nc(NC(C)(C)C)n1` [Mctt, 2-methylthio-4-cyclopropylamino-6-t-butylamino-1,3,5-triazine], the HPLC area was 955.2 arbitrary units in data set [2] (0 h watering); 787.1 arbitrary units in data set [2] (24 h watering); 800.2 arbitrary units in data set [2] (48 h watering); 677.6 arbitrary units in data set [2] (72 h watering); 547.4 arbitrary units in data set [2] (96 h watering). Further, the HPLC relative area in data set [2] (0 h watering) is given as 1; in data set [2] (24 h watering), 0.824; in data set [2] (48 h watering), 0.837; in data set [2] (72 h watering), 0.708; in data set [2] (96 h watering) it was 0.572.

Turning to `CCCCCCCCCn1sccc1=O` [NITZ, 2-n-nonylisothiazolin-3-one], the chromatographic logP in data set [1] was 3.51.

With `CCCCCCCCn1sccc1=O` [OITZ, 2-n-octylisothiazolin-3-one], the chromatographic logP in data set [1] worked out at 2.89.

As to `CCCCCCCCCCCn1sccc1=O` [compound 11, 2-n-undecylisothiazolin-3-one], the chromatographic logP in data set [1] worked out at 4.76.

Regarding `CCCCCCCCCCCCn1sccc1=O` [dodecyl-ITZ, 2-n-dodecylisothiazolin-3-one], the chromatographic logP in data set [1] amounted to 5.36.
